Results as given in the CheMixHub ionic liquid set.
± gives the uncertainty stated by the source.

Assay: xn = mol fraction of the nth substance listed

CCCCCCCCCCCC[N+](C)(C)Cc1ccccc1.[Cl-] + NCC(=O)NCC(=O)O + O
electrical conductivity [S/m], 101 kPa
Settings | 293.15 K | 298.15 K | 303.15 K | 308.15 K | 313.15 K
x2 = 0.0008945, x1 = 0.0002797 | 0.0793 ± 0.005 | 0.0896 ± 0.0056 | 0.0999 ± 0.0062 | 0.111 ± 0.0068 | 0.123 ± 0.0075
x2 = 0.0008945, x1 = 0.0003 | 0.0824 ± 0.005 | 0.0938 ± 0.0058 | 0.105 ± 0.0064 | 0.117 ± 0.0072 | 0.129 ± 0.0079
x2 = 0.0008945, x1 = 0.0003225 | 0.086 ± 0.0054 | 0.0984 ± 0.0061 | 0.109 ± 0.0068 | 0.123 ± 0.0076 | 0.135 ± 0.0083
x2 = 0.0008945, x1 = 0.0003431 | 0.0893 ± 0.0056 | 0.102 ± 0.0064 | 0.115 ± 0.0071 | 0.128 ± 0.0079 | 0.14 ± 0.0086
x2 = 0.0008946, x1 = 0.0001787 | 0.0623 ± 0.0039 | 0.069 ± 0.0043 | 0.0771 ± 0.0048 | 0.086 ± 0.0053 | 0.0944 ± 0.0058
x2 = 0.0008946, x1 = 0.000206 | 0.0676 ± 0.0043 | 0.0752 ± 0.0047 | 0.0839 ± 0.0052 | 0.093 ± 0.0057 | 0.103 ± 0.0063
x2 = 0.0008946, x1 = 0.0002337 | 0.0721 ± 0.0045 | 0.081 ± 0.0051 | 0.09 ± 0.0056 | 0.0999 ± 0.0061 | 0.111 ± 0.0068
x2 = 0.0008946, x1 = 0.0002576 | 0.0759 ± 0.0048 | 0.0855 ± 0.0053 | 0.0949 ± 0.0059 | 0.106 ± 0.0065 | 0.118 ± 0.0072
x2 = 0.0008947, x1 = 6.107e-05 | 0.0231 ± 0.0015 | 0.0264 ± 0.0017 | 0.0294 ± 0.0018 | 0.0327 ± 0.002 | 0.036 ± 0.0023
x2 = 0.0008947, x1 = 8.317e-05 | 0.0312 ± 0.002 | 0.0352 ± 0.0022 | 0.0392 ± 0.0024 | 0.0433 ± 0.0027 | 0.0476 ± 0.003
x2 = 0.0008947, x1 = 0.0001051 | 0.0388 ± 0.0024 | 0.0437 ± 0.0027 | 0.0485 ± 0.003 | 0.0537 ± 0.0033 | 0.059 ± 0.0037
x2 = 0.0008947, x1 = 0.0001274 | 0.0473 ± 0.003 | 0.0523 ± 0.0033 | 0.0589 ± 0.0037 | 0.0647 ± 0.004 | 0.0718 ± 0.0045
x2 = 0.0008947, x1 = 0.000152 | 0.0562 ± 0.0035 | 0.0624 ± 0.0039 | 0.0692 ± 0.0043 | 0.0771 ± 0.0048 | 0.0851 ± 0.0053
x2 = 0.001798, x1 = 0.0001447 | 0.056 ± 0.0035 | 0.0627 ± 0.0039 | 0.0696 ± 0.0043 | 0.0768 ± 0.0048 | 0.0846 ± 0.0053
x2 = 0.001798, x1 = 0.0001707 | 0.063 ± 0.004 | 0.0704 ± 0.0044 | 0.0781 ± 0.0048 | 0.0865 ± 0.0053 | 0.0956 ± 0.0059
x2 = 0.001798, x1 = 0.0001977 | 0.0685 ± 0.0043 | 0.0766 ± 0.0048 | 0.0852 ± 0.0052 | 0.0946 ± 0.0058 | 0.105 ± 0.0064
x2 = 0.001798, x1 = 0.0002221 | 0.0729 ± 0.0046 | 0.0816 ± 0.0051 | 0.091 ± 0.0056 | 0.101 ± 0.0062 | 0.113 ± 0.0069
x2 = 0.001798, x1 = 0.0002443 | 0.0767 ± 0.0049 | 0.0861 ± 0.0054 | 0.0963 ± 0.0059 | 0.107 ± 0.0066 | 0.12 ± 0.0074
x2 = 0.001798, x1 = 0.0002649 | 0.0802 ± 0.0051 | 0.0902 ± 0.0056 | 0.101 ± 0.0062 | 0.112 ± 0.0069 | 0.126 ± 0.0077
x2 = 0.001798, x1 = 0.000284 | 0.0835 ± 0.0053 | 0.094 ± 0.0058 | 0.105 ± 0.0065 | 0.118 ± 0.0072 | 0.131 ± 0.0081
x2 = 0.001798, x1 = 0.0003015 | 0.0864 ± 0.0053 | 0.0974 ± 0.006 | 0.109 ± 0.0067 | 0.122 ± 0.0075 | 0.137 ± 0.0084
x2 = 0.001798, x1 = 0.000321 | 0.0898 ± 0.0057 | 0.101 ± 0.0063 | 0.114 ± 0.0071 | 0.127 ± 0.0079 | 0.142 ± 0.0087
x2 = 0.001799, x1 = 5.376e-05 | 0.0229 ± 0.0014 | 0.0259 ± 0.0016 | 0.029 ± 0.0018 | 0.0323 ± 0.002 | 0.0357 ± 0.0023
x2 = 0.001799, x1 = 7.599e-05 | 0.0313 ± 0.002 | 0.0352 ± 0.0022 | 0.0394 ± 0.0025 | 0.0437 ± 0.0028 | 0.0482 ± 0.0031
x2 = 0.001799, x1 = 9.786e-05 | 0.0395 ± 0.0025 | 0.0443 ± 0.0028 | 0.0494 ± 0.0031 | 0.0546 ± 0.0034 | 0.0601 ± 0.0038
x2 = 0.001799, x1 = 0.0001201 | 0.0476 ± 0.003 | 0.0533 ± 0.0033 | 0.0593 ± 0.0037 | 0.0655 ± 0.0041 | 0.0721 ± 0.0046

[Cl-].c1ccc(C[P+](c2ccccc2)(c2ccccc2)c2ccccc2)cc1 + OCC(O)CO
101 kPa, x2 = 0.9412
Settings | electrical conductivity [S/m] | viscosity [mPa·s]
298.1 K | 0.006977 ± 1e-09 | –
307.07 K | – | 654 ± 31
322.36 K | – | 238 ± 7.1
322.96 K | 0.03314 ± 1e-09 | –
332.98 K | 0.04535 ± 1e-09 | –
338.06 K | 0.05407 ± 1e-08 | –
343.13 K | 0.0593 ± 1e-09 | –
348.08 K | 0.075 ± 0.0001 | –

CCCC[n+]1ccn(C)c1.[Br-] + Cc1ncc(CO)c(CO)c1O.Cl + O
viscosity [mPa·s], 100 kPa
Settings | 293.15 K | 298.15 K | 303.15 K | 308.15 K | 313.15 K
x2 = 0, x1 = 0.0009002 | 1.033 ± 0.081 | 0.918 ± 0.08 | 0.823 ± 0.08 | 0.753 ± 0.08 | 0.676 ± 0.08
x2 = 0, x1 = 0.001799 | 1.057 ± 0.081 | 0.938 ± 0.08 | 0.841 ± 0.08 | 0.757 ± 0.08 | 0.689 ± 0.08
x2 = 0, x1 = 0.002696 | 1.068 ± 0.081 | 1.001 ± 0.081 | 0.904 ± 0.08 | 0.796 ± 0.08 | 0.748 ± 0.08
x2 = 0.0002693, x1 = 0.0008999 | 1.037 ± 0.081 | 0.922 ± 0.08 | 0.827 ± 0.08 | 0.757 ± 0.08 | 0.68 ± 0.08
x2 = 0.0002812, x1 = 0.001798 | 1.062 ± 0.081 | 0.943 ± 0.08 | 0.846 ± 0.08 | 0.762 ± 0.08 | 0.694 ± 0.08
x2 = 0.0002821, x1 = 0.002695 | 1.073 ± 0.081 | 1.006 ± 0.081 | 0.909 ± 0.08 | 0.801 ± 0.08 | 0.753 ± 0.08
x2 = 0.0004585, x1 = 0.0008998 | 1.041 ± 0.081 | 0.926 ± 0.08 | 0.831 ± 0.08 | 0.761 ± 0.08 | 0.684 ± 0.08
x2 = 0.0005547, x1 = 0.002694 | 1.078 ± 0.081 | 1.011 ± 0.081 | 0.914 ± 0.08 | 0.806 ± 0.08 | 0.758 ± 0.08
x2 = 0.0005732, x1 = 0.001798 | 1.067 ± 0.081 | 0.948 ± 0.081 | 0.851 ± 0.08 | 0.767 ± 0.08 | 0.699 ± 0.08
x2 = 0.0008147, x1 = 0.0008995 | 1.047 ± 0.081 | 0.932 ± 0.08 | 0.837 ± 0.08 | 0.768 ± 0.08 | 0.691 ± 0.08
x2 = 0.0008302, x1 = 0.001797 | 1.072 ± 0.081 | 0.953 ± 0.081 | 0.856 ± 0.08 | 0.772 ± 0.08 | 0.704 ± 0.08
x2 = 0.0008383, x1 = 0.002693 | 1.083 ± 0.081 | 1.016 ± 0.081 | 0.919 ± 0.08 | 0.811 ± 0.08 | 0.763 ± 0.08
x2 = 0.001093, x1 = 0.0008992 | 1.052 ± 0.081 | 0.937 ± 0.08 | 0.842 ± 0.08 | 0.774 ± 0.08 | 0.696 ± 0.08
x2 = 0.001142, x1 = 0.001797 | 1.078 ± 0.081 | 0.959 ± 0.081 | 0.861 ± 0.08 | 0.777 ± 0.08 | 0.709 ± 0.08
x2 = 0.001151, x1 = 0.002693 | 1.089 ± 0.081 | 1.022 ± 0.081 | 0.925 ± 0.08 | 0.816 ± 0.08 | 0.768 ± 0.08
x2 = 0.00136, x1 = 0.000899 | 1.058 ± 0.081 | 0.943 ± 0.08 | 0.848 ± 0.08 | 0.78 ± 0.08 | 0.703 ± 0.08
x2 = 0.001373, x1 = 0.001796 | 1.082 ± 0.081 | 0.963 ± 0.081 | 0.865 ± 0.08 | 0.781 ± 0.08 | 0.713 ± 0.08
x2 = 0.001399, x1 = 0.002692 | 1.094 ± 0.081 | 1.027 ± 0.081 | 0.929 ± 0.08 | 0.82 ± 0.08 | 0.772 ± 0.08
x2 = 0.001637, x1 = 0.0008987 | 1.063 ± 0.081 | 0.948 ± 0.08 | 0.854 ± 0.08 | 0.785 ± 0.08 | 0.708 ± 0.08
x2 = 0.001664, x1 = 0.002691 | 1.098 ± 0.081 | 1.032 ± 0.081 | 0.933 ± 0.08 | 0.825 ± 0.08 | 0.777 ± 0.08
x2 = 0.001674, x1 = 0.001796 | 1.087 ± 0.081 | 0.968 ± 0.081 | 0.87 ± 0.08 | 0.786 ± 0.08 | 0.718 ± 0.08

CCCC[N+](CCCC)(CCCC)CCCC.[Cl-] + OC[C@@H](O)[C@@H](O)[C@H](O)[C@@H](O)CO + O
100 kPa, x1 = 0.1428, x2 = 0.1428
Settings | electrical conductivity [S/m] | viscosity [mPa·s]
293.15 K | 0.121 ± 0.012 | 390 ± 110
303.15 K | 0.189 ± 0.019 | 201 ± 37
313.15 K | 0.285 ± 0.029 | 107 ± 11
323.15 K | 0.42 ± 0.042 | 59.8 ± 1.6
333.15 K | 0.605 ± 0.06 | 34.5 ± 1.2

O=C(O)C(=O)O + C[N+](C)(C)Cc1ccccc1.[Cl-]
101 kPa, x2 = 0.5
Settings | electrical conductivity [S/m] | viscosity [mPa·s]
293.14 K | 0.2104 ± 1e-08 | –
293.17 K | – | 1971 ± 130
298.07 K | 0.3284 ± 1e-07 | –
298.09 K | – | 1362 ± 83
303.08 K | 0.4611 ± 1e-08 | –
303.11 K | – | 714 ± 38
308.09 K | 0.6182 ± 1e-07 | –
308.12 K | – | 452 ± 20
312.95 K | – | 266.7 ± 9.4
313.1 K | 0.7996 ± 1e-08 | –
317.96 K | – | 197.3 ± 5.2
318.18 K | 1.025 ± 1e-07 | –
323.06 K | – | 166.6 ± 4.5
323.19 K | 1.246 ± 1e-07 | –
327.98 K | – | 58.6 ± 2.8
328.11 K | 1.505 ± 1e-07 | –
332.99 K | – | 27.7 ± 1.2
333.03 K | 1.774 ± 1e-07 | –
